From patent US20250032430A1, “USES OF RHODOQUINONE FOR THE TREATMENT OF DISEASE” (Whitehead Institute for Biomedical Research, priority 2021, published 2025)
One block for each compound: values may come before it.

What was measured:
[1] = system: complex I; assay: Complex I activity assay (DCPIP) on purified mitochondria; format: biochemical, human; conditions: mitochondria from wild-type, UQCRC2 KO and COX4 KO 143B cells; 1 μM rotenone
Procedure: (§1) Isolation of Mitochondria for Biochemical Assays: 143B cells were scraped and pelleted at 1000×g for 5 minutes. Cell pellets were washed in 1×PBS and pelleted at 1000×g for 5 minutes. For tissue samples, approximately 100 mg of tissue powder was weighed out. Tissue powder or cells were re-suspended in isolation buffer (200 mM sucrose, 10 mM Tris HCl, 1 mM EGTA/Tris, pH 7.4 (adjusted with 1M HEPES)), transferred into an ice-cold glass homogenizer (VWR), and dounced with 15-30 strokes. Homogenates were transferred into tubes and spun at 600×g for 10 minutes at 4° C. Supernatants were moved to a new tube and centrifugation was repeated. Then, supernatants were moved to a new tube and pelleted at 7,000×g for 10 minutes at 4° C. Pellets were washed in isolation buffer and centrifugation was repeated. Pellets were subsequently stored at −80° C. until use.
Complex 1 activity assay (DCPIP): Purified mitochondria were re-suspended in buffer (0.22 M Mannitol, 0.075 M Sucrose, 1 mM EDTA, 10 mM HEPES pH 7.4, and one complete Protease inhibitor tablet (Sigma)) to a concentration of 5 mg/mL. […] Either 1 μM rotenone or equivalent DMSO was added to each well and baseline absorbance at 600 nm was measured on a SpectraMax iD5 plate reader (Molecular Devices). Reactions were initiated by adding NADH (Sigma) to a final concentration of 2 mM and absorbance at 600 nm was monitored over time.

[2] = biological target: T1, SDH complex (Homo sapiens, UniProt O14521+P21912+P31040+Q99643); assay: SDH forward/reverse activity (succinate oxidation, fumarate reduction) by stable isotope tracing in cells; format: cell-based
T1 construct: endogenous in cells; host or cells: 143B cells (A5: live cells; A6: permeabilized mitochondria purified from them)
T1 sequence (P31040 43-664): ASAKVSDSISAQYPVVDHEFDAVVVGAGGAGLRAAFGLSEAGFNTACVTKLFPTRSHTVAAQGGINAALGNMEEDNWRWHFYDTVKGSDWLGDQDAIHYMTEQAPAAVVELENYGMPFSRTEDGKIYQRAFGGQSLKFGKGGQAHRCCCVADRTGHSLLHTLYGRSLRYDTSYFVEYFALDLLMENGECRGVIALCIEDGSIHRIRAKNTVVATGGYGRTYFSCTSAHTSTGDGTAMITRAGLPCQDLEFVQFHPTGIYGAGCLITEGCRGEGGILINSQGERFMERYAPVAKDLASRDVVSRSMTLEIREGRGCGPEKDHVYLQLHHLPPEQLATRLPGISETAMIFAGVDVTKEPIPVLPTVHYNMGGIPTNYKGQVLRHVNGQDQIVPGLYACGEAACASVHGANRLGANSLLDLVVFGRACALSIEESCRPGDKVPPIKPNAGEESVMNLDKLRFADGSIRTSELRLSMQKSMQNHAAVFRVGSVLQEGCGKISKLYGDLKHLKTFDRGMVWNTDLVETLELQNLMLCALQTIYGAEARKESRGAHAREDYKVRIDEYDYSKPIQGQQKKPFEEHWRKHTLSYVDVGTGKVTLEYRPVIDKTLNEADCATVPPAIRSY
T1 sequence (P21912 29-280): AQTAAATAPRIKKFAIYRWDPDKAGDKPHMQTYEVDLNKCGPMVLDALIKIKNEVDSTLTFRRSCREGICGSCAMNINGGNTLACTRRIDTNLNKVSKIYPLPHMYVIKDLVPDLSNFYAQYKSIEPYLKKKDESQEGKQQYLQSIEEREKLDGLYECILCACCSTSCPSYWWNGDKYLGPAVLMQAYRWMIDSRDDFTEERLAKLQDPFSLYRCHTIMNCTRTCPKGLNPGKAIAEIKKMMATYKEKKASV
T1 sequence (Q99643 30-169): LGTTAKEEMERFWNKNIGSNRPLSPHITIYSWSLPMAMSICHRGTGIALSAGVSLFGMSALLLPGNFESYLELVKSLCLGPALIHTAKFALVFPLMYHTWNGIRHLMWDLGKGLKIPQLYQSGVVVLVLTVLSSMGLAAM
T1 sequence (O14521 57-159): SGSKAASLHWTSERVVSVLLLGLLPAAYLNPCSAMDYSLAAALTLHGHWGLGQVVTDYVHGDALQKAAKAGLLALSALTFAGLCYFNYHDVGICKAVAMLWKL
From the text: Fumarate reduction can be monitored in cells by the stable isotope tracing of either ^13C4-aspartate or ^13C5^15N2-glutamine. ^13C4-aspartate contributes to the fumarate pool via oxaloacetate and malate and so should lead to the production of ^13C4-succinate upon fumarate reduction (FIG. 2B). ^13C5^15N2-glutamine contributes to the fumarate pool through the reductive arm of the TCA cycle via glutamate, α-ketoglutarate, isocitrate, citrate, oxaloacetate, and malate. A key distinction between the two labeling approaches is that ^13C5^15N2-glutamine enriches the fumarate pool more upon antimycin treatment due to enhanced reductive carboxylation flux, whereas ^13C4-aspartate labels the fumarate pool to equivalent extents in vehicle and antimycin-treated cells (FIG. 2C). Therefore, with stable isotope tracing of ^13C4-aspartate, the level of ^13C4-succinate is a direct measure of fumarate reduction, whereas the stable isotope tracing of ^13C5^15N2-glutamine requires a ratiometric analysis of labeled succinate to labeled fumarate to normalize for differences in the extent of fumarate labeling.
To test if hypoxia triggers electron leakage onto fumarate or a net-reversal of the SDH complex, the ^13C5^15N2-glutamine tracer was utilized, which enables simultaneous quantification of the forward and reverse activities of SDH through the generation of unique isotopologues upon flux through the oxidative arm (α-ketoglutarate to succinate) compared to the reductive arm (α-ketoglutarate—via citrate—to fumarate) of the TCA cycle (FIG. 2E). In this assay, the forward (succinate oxidation) reaction was defined as the ratio of percent labeled ^13C4-fumarate to its precursor ^13C4-succinate (FIG. 2E) and the reverse (fumarate reduction) as that of percent labeled ^13C3-succinate to its precursor ^13C3-fumarate (FIG. 2E). This type of analysis can be performed when the labeling is in the steady-state, which was determined to be after 4-8 hours of incubation with ^13C5^15N2-glutamine (FIG. S2E-F). This ratiometric analysis of the succinate and fumarate isotopologues eliminates potential biases in the assay, such as higher ^13C3-fumarate labeling in antimycin-treated cells caused increased reductive carboxylation flux (FIG. S2E).
Stable isotope tracing in cells: Cells were seeded 24 hours prior to the experiment in 6-well dishes at 70% density. For stable isotope tracing of glutamine, glutamine-free DMEM (ThermoFisher) was supplemented with 2 mM ^13C5^15N2-glutamine (Sigma), 1 mM pyruvate, 5% FBS, 1% P/S, 0.1 mg/mL uridine. For stable isotope tracing of aspartate, DMEM containing 5% FBS, and 1% penicillin and streptomycin, and 0.1 mg/mL uridine (Sigma) was supplemented with the designated amount of 13C4-aspartate (Sigma) and the pH adjusted to 7.4. Uridine was left out of the media for stable isotope tracing experiments measuring nucleotide biosynthesis. Unless otherwise stated, for all experiments, cells were treated for 8 hours and metabolites were isolated as described below. Relevant compounds were added at the start of the incubation periods.

[3] = system: 143B cells; assay: Cell proliferation; format: cell-based, human; conditions: for proliferation: UQCRC2 and COX4 knockout cells
Procedure: Proliferation: 25,000 cells were seeded in 6-well dishes and counted on day 1 and day 5 on a Beckman Coulter Counter. Doubling times were calculated using the following equation: […]

[4] = biological target: DHODH (Homo sapiens, UniProt Q02127)
DHODH, sequence (Q02127 whole entry): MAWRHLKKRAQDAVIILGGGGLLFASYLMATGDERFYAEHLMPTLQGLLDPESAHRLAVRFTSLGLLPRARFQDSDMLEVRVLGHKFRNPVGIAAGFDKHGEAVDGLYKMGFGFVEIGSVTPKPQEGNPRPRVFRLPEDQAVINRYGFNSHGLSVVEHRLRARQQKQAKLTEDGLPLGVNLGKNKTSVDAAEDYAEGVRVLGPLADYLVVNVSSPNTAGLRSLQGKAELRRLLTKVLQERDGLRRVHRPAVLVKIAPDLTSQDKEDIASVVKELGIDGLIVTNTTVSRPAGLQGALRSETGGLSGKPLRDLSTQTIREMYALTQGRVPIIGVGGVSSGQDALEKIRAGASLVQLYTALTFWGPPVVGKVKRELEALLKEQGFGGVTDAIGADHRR
Procedure: Isolation of metabolites from adherent cells: To isolate metabolites, media was removed, cells were washed 2 times with ice cold 1×PBS, and wells were covered in LC-MS grade 80:20 Methanol:Water (ThermoFisher). Plates were scraped on dry ice and lysates were collected into eppendorf tubes. Lysates were vortexed for 10 minutes at 4° C. and centrifuged at 16,000×g for 10 minutes at 4° C. Supernatants were immediately dried down in a Refrigerated CentriVap Benchtop Vacuum Concentrator connected to a CentriVap-105 Cold Trap (Labconco). Dried pellets were stored at −80° C. until they were run on LC-MS.
Liquid Chromatography and Mass Spectrometry (polar): A QExactive bench top orbitrap mass spectrometer equipped with an Ion Max source and a HESI II probe coupled to a Dionex UltiMate 3000 HPLC system (Thermo Fisher Scientific) was used to perform all LC-MS experiments. The instrument underwent mass calibration using the standard calibration mixture every 7 days. 2 μL of re-suspended polar metabolite samples were injected onto a SeQuant ZIC-pHILIC 5 μm 150×2.1 mm analytical column equipped with a 2.1×20 mm guard column (MilliporeSigma). The column oven was held at 25° C. and the autosampler tray was held at 4° C. Buffer A was comprised of 20 mM ammonium carbonate, 0.1% ammonium hydroxide. Buffer B was comprised of 100% acetonitrile. The chromatographic gradient was run at a flow rate of 0.150 mL/min as follows: 0-20 min: linear gradient from 80-20% B; 20-20.5 min: linear gradient from 20-80% B; 20.5-28 min: hold at 80% B. The mass spectrometer was operated in full-scan, polarity-switching mode, with the spray voltage set to 3.0 kV, the heated capillary at 275° C., and the HESI probe at 350° C. The sheath gas flow was 40 units, the auxiliary gas flow was 15 units, and the sweep gas flow was 1 unit. MS data was collected in a range of m/z=70-1000. The resolution set at 70,000, the AGC target at 1×106, and the maximum injection time at 20 msec. An additional scan (m/z=220-700) was included in negative mode only to enhance detection of nucleotides.

[5] = system: 143B cells; assay: Oxygen consumption rate of cultured cells; format: cell-based, human; conditions: UQCRC2 and COX4 knockout cells
Procedure: Oxygen Consumption Rate (Seahorse): Respiration was measured on intact 143B cells and on mitochondria purified from tissue on the Seahorse XFe-96 Analyzer (Seahorse Bioscience). Cells were incubated in a non-CO2 37° C. incubator in serum-free Seahorse XF RPMI Media (Seahorse Bioscience, Catalog #103336) supplemented with 5 mM glucose, 2 mM glutamine, and 1 mM pyruvate. Oxygen consumption rate (OCR) was measured over a period of 30 minutes. Oxygen consumption rate was also measured on mitochondria purified from mouse tissues. Mitochondria were incubated in MAS buffer (70 mM sucrose, 220 mM mannitol, 10 mM KH2PO4, 5 mM MgCl2, 2 mM HEPES pH 7.2, 1 mM EGTA, 2% BSA) supplemented with 2 mM ADP, 5 mM glutamate, 5 mM malate, 5 mM pyruvate, and 2.5 mM succinate. Oxygen consumption rate (OCR) was measured over a period of 30 minutes.
Oxygen Consumption Rate (Resipher): 25,000 143B cells were seeded into Thermo Nunc Treated, Flat-Bottom 96-Well Microplate (167008) in standard culture medium 24 hours prior to experimentation. […] Live oxygen consumption rate was measured for 3 hours and then media was changed to treat cells with the appropriate inhibitors. Live oxygen consumption rate was monitored for an additional 3 hours. Data were analyzed on Resipher web application (Lucid Scientific).

[6] = system: mitochondrial membrane potential; assay: Mitochondrial membrane potential (TMRE dye); format: cell-based, human; conditions: 250 nM CCCP
Procedure: Live Cell Imaging: 143B cells were seeded at 50% density in 6-well dishes 24 hours prior to the experiment. Cells were pre-incubated with 500 nM TMRE dye for 30 minutes and then imaging on a Nikon TE2000 inverted microscope was started. Images were taken at 1 minute intervals over the course of an hour in the mCherry channel while the plate was incubated in a chamber maintaining a temperature of 37° C. and 5% CO2.
Flow Cytometry: Cells were seeded 24 hours prior to the experiment at 50% density. On the day of the experiment, the cells were treated for the designated time with inhibitors. 30 minutes prior to the end of the incubation, 500 nM TMRE dye was added to the wells. Following incubation cells were washed, trypsinized, and filtered through a cell strainer prior to sorting. Fluorescence-activated cell sorting was performed on a LSR-II sorter, in which the fluorescence intensity of individual cells was quantified in the PE channel. Data were analyzed using FlowJo software (TreeStar).

[7] = system: SDH complex; assay: SDH activity assay in permeabilized purified mitochondria; format: biochemical, human; conditions: permeabilized purified mitochondria; 1 μM piericidin
Procedure: SDH activity was examined in permeabilized purified mitochondria. The rate of succinate oxidation was measured by monitoring fumarate production over time after initiating the reaction with succinate. The rate of fumarate reduction was measured in a separate assay by monitoring the rate of succinate production over time after initiating the reaction with fumarate and NADH. […] Moreover, complex I inhibition by piericidin suppressed the fumarate reduction caused by antimycin treatment (FIG. 2I).
as §1
SDH Activity Assay: Purified mitochondria were re-suspended in buffer (0.22 M Mannitol, 0.075 M Sucrose, 1 mM EDTA, 10 mM HEPES pH 7.4, and one complete Protease inhibitor tablet (Sigma)) to a concentration of 5 mg/mL and underwent 5 freeze-thaw cycles to permeabilize them. 30 μg mitochondria (6 uL) were diluted 1:10 (in 54 uL) of SDH activity assay buffer (27.5 mM KH2PO4 pH 7.4, 1.1 mM CoQ-10 (Sigma), 3.5 g/L BSA). Reactions were supplemented with DMSO, 1 μM antimycin, or 1 μM piericidin and pre-incubated at 37° C. for 10 minutes. […] Samples were centrifuged at 16,000×g for 10 minutes at 4° C. and supernatants were dried down and analyzed by LC-MS for succinate and fumarate.

Structure (SMILES): C=C(C)[C@H]1Cc2c(ccc3c2O[C@@H]2COc4cc(OC)c(OC)cc4[C@@H]2C3=O)O1 [rotenone]
complex I activity [1]: significantly reduced

increase in fumarate reduction caused by antimycin treatment ([2]; 143B cells, antimycin co-treatment): slightly suppressed
Structure (SMILES): COC(=O)CCC(=O)OC [dimethylsuccinate]

Structure (SMILES): CC1(C)CC(NC(=O)C[P+](c2ccccc2)(c2ccccc2)c2ccccc2)CC(C)(C)N1[O] [MitoTEMPO]
fumarate reduction ([2]; antimycin-treated 143B cells): did not affect
fumarate reduction ([2]; vehicle-treated 143B cells): significant decrease

fumarate reduction ([2]; SDHB knockout cells): no effect
fumarate reduction ([2]; UQCRC2 and COX4 knockout cells): almost completely ablated
Structure (SMILES): O=C(O)CC(=O)O [malonic acid]
proliferation [3]: significantly reduced

13C3-UTP biosynthesis ([4]; UQCRC2 and COX4 knockout 143B cells, 2 μM brequinar): ablated
de novo UTP biosynthesis (13C3-UTP generation, DHODH activity) ([4]; wild-type 143B cells, 13C4-aspartate tracing 8 hours, 500 nM antimycin, 2 μM brequinar): ablated
Structure (SMILES): Cc1c(-c2ccc(-c3ccccc3F)cc2)nc2ccc(F)cc2c1C(=O)O [brequinar]
O2 consumption rate [5]: no effect
proliferation [3]: reduced
aspartate-increased proliferation of antimycin-treated cells ([3]; culture media supplemented with aspartate, antimycin-treated cells): ablated

Structure (SMILES): N#CC(C#N)=NNc1cccc(Cl)c1 [CCCP, Carbonyl cyanide 3-chlorophenylhydrazone]
TMRE fluorescence [6]: reduced fluorescence

Structure (SMILES): C/C=C(\C)[C@H](O)[C@H](C)/C=C(C)/C=C/C/C(C)=C/Cc1nc(OC)c(OC)c(O)c1C [piericidin]
DHODH activity (13C4-aspartate into 13C3-UTP) ([4]; combined inhibition of complex III with antimycin and complex I with piericidin): no effect
O2 consumption rate [5]: did not affect
proliferation [3]: did reduce their proliferation, although to a lesser extent than in wild-type cells
fumarate reduction caused by antimycin treatment [7]: suppressed
